Source: patent publication US12331040B2 (Karyopharm Therapeutics Inc., priority 2013, dated 2025)
Like-named read-outs stand apart in the source and are kept apart here.

Columns and labels:
Type in all cases: cell-based
MS751 cells = experiment: MTT cell proliferation assay; settings: Homo sapiens
How it was run: (§1)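 5,000-10,000 cells/well, overnight attach; 8 conc., 1 nM–30 μM; MTT ~4 h; formazan solubilized, OD 490 nm; % inhibition = (1−(ODo/OD))×100 vs neg. control; mostly duplicate, mean±SE.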

3T3 cells = experiment: MTT cell proliferation assay; settings: Mus musculus
How it was run: as §1

Z138 cells = experiment: MTT cell proliferation assay; settings: Homo sapiens
How it was run: as §1

MM1S cells = experiment: MTT cell proliferation assay; settings: Homo sapiens, MM1.S
Protocol: (§2) The MTT cell proliferation assay was used to study the cytotoxic properties of the compounds. The assay was performed according to the method described by Roche Molecular Biochemicals, with minor modifications. The assay is based on the cleavage of the tetrazolium salt, MTT, in the presence of an electron-coupling reagent. The water-insoluble formazan salt produced must be solubilized in an additional step. Cells grown in a 96-well tissue culture plate were incubated with the MTT solution for approximately 4 hours. After this incubation period, a water-insoluble formazan dye formed. After solubilization, the formazan dye was quantitated using a scanning multi-well spectrophotometer (ELISA reader). […] The cells were seeded at 5,000-10,000 cells in each well of 96-well plate in 100 μL of fresh culture medium and were allowed to attach overnight. The stock solutions of the compounds were diluted in 100 μL cell culture medium to obtain eight concentrations of each test compound, ranging from 1 nM to 30 μM. […] All optical densities were measured at 490 nm using a Vmax Kinetic Microplate Reader (Molecular Devices). In most cases, the assay was performed in duplicate and the results were presented as a mean percent inhibition to the negative control±SE. The following formula was used to calculate the percent of inhibition: Inhibition (%)=(1−(ODo/OD))×100.
(§3) The M24 cell line is derived from human melanoma cells. The U2OS cell line is a human osteosarcoma cell line expressing wild type p53 and Rb, but lacking p16. The MM1S cell line is a multiple myeloma cell line; the parent cell line, MM.1, was established from peripheral blood of a multiple myeloma patient who had become resistant to steroid-based therapy. The RPMI8226 cell line is derived from human B lymphocyte cells. NHDF cells are normal human dermal fibroblast cells. The MRC-5 cell line is derived from normal lung tissue of a fetus. The PC3 cell line is a human prostate cancer cell line. The DU-145 cell line is a human prostate cancer cell line. The MDA-MB-231 cell line is a human breast adenocarcinoma cell line. The MDA-MB-468 cell line is a human breast carcinoma cell line. HL-60 cells are human promyelocytic leukemia cells. Hep G2 cells are human hepatocellular carcinoma cells. HEP 3B cells are human hepatocellular carcinoma cells. The DLD-1 cell line is a colorectal adenocarcinoma cell line. The HCT-15 cell line is a human colon carcinoma cell line. The Colo-205 cell line is derived from a human adenocarcinoma of the colon. The LoVo cell line is a human colon adenocarcinoma cell line.

HCT-15 cells = experiment: MTT cell proliferation assay; settings: Homo sapiens
Protocol: as §2, §3

LoVo cells = experiment: MTT cell proliferation assay; settings: Homo sapiens
Protocol: as §2, §3

DLD-1 cells = experiment: MTT cell proliferation assay; settings: Homo sapiens
Protocol: as §2, §3

Colo-205 cells = experiment: MTT cell proliferation assay; settings: Homo sapiens
Protocol: as §2, §3

NHDF cells = experiment: MTT cell proliferation assay; settings: Homo sapiens
Protocol: as §2, §3

[1] = MTT cell proliferation assay; settings: human, MRC-5 cells (normal fetal lung cell line); MRC-5 cells; 72-hour MTT
Protocol: as §2, §3

DU-145 cells = experiment: MTT cell proliferation assay; settings: Homo sapiens
Protocol: as §2, §3

U2OS cells = experiment: MTT cell proliferation assay; settings: Homo sapiens
Protocol: as §2, §3

MDA-MB-231 cells = experiment: MTT cell proliferation assay; settings: Homo sapiens
Protocol: as §2, §3

MDA-MB-468 cells = experiment: MTT cell proliferation assay; settings: Homo sapiens
Protocol: as §2, §3

PC3 cells = experiment: MTT cell proliferation assay; settings: Homo sapiens, PC-3
Protocol: as §2, §3

[2] = MS751, 72 h, MS751 cells, 72-hour MTT, read-out: MS751 MTT IC50
[3] = MS751, MS751 cells, approximately 64-72 hours incubation, read-out: MTT Assay IC50 MS-751
[4] = NIH3T3, 72-hour MTT, read-out: 3T3 MTT IC50
[5] = NIH3T3, approximately 64-72 hours incubation, read-out: MTT Assay IC50 3T3
[6] = Z-138, 72 h, Z-138 cells, 72-hour MTT, read-out: Z-138 MTT IC50
[7] = Z-138, Z138 cells, approximately 64-72 hours incubation, read-out: MTT Assay IC50 Z-138
[8] = MM1S cell line, read-out: MTT Assay IC50, MM1S
[9] = MM1S cells, 72-hour MTT, read-out: MM1S MTT IC50
[10] = HCT-15 cell line, read-out: MTT Assay IC50, HCT-15
[11] = HCT-15 cells, 72-hour MTT, read-out: HCT-15 MTT IC50
[12] = LoVo cell line, read-out: MTT Assay IC50, LoVo
[13] = LoVo cells, 72-hour MTT, read-out: LoVo MTT IC50
[14] = DLD-1 cell line, read-out: MTT Assay IC50, DLD-1
[15] = DLD-1 cells, 72-hour MTT, read-out: DLD-1 MTT IC50
[16] = Colo-205 cell line, read-out: MTT Assay IC50, Colo-205
[17] = Colo-205 cells, 72-hour MTT, read-out: Colo-205 MTT IC50
[18] = NHDF cell line, read-out: MTT Assay IC50, NHDF
[19] = NHDF cells, 72-hour MTT, read-out: NHDF MTT IC50
[20] = DU-145 cell line, read-out: MTT Assay IC50, DU-145
[21] = DU-145 cells, 72-hour MTT, read-out: DU-145 MTT IC50
[22] = U2OS cell line, read-out: MTT Assay IC50, U2OS
[23] = U2OS cells, 72-hour MTT, read-out: U2OS MTT IC50
[24] = MDA-MB-231 cell line, read-out: MTT Assay IC50, MDA-MB-231
[25] = MDA-MB-231 cells, 72-hour MTT, read-out: MDA-MB-231 MTT IC50
[26] = MDA-MB-468 cell line, read-out: MTT Assay IC50, MDA-MB-468
[27] = MDA-MB-468 cells, 72-hour MTT, read-out: MDA-MB-468 MTT IC50
[28] = PC3 cells, 72-hour MTT, read-out: PC3 MTT IC50

| Structure (SMILES) | IC50 (MS751 cells; [2]) | IC50 (MS751 cells; [3]) | IC50 (3T3 cells; [4]) | IC50 (3T3 cells; [5]) | IC50 (Z138 cells; [6]) | IC50 (Z138 cells; [7]) | IC50 (MM1S cells; [8]) | IC50 (MM1S cells; [9]) | IC50 (HCT-15 cells; [10]) | IC50 (HCT-15 cells; [11]) | IC50 (LoVo cells; [13]) | IC50 (DLD-1 cells; [15]) | IC50 (Colo-205 cells; [17]) | IC50 (NHDF cells; [19]) | IC50 at 72 h [1] | IC50 (DU-145 cells; [21]) | IC50 (U2OS cells; [23]) | IC50 (MDA-MB-231 cells; [25]) | IC50 (MDA-MB-468 cells; [27]) | IC50 (PC3 cells; [28]) | also measured |
| --- | --- | --- | --- | --- | --- | --- | --- | --- | --- | --- | --- | --- | --- | --- | --- | --- | --- | --- | --- | --- | --- |
| Nc1ccc(/C=C/C(=O)NCc2cc3cc(-c4ccc(S(=O)(=O)N5CCOCC5)cc4)cc(Cl)c3o2)cn1 [Compound 504, (E)-3-(6-Aminopyridin-3-yl)-N-((7-chloro-5-(4-(morpholinosulfonyl)phenyl)benzofuran-2-yl)methyl)acrylamide] | 30 nM | < 100 nM | 350 nM | 100 to 5000 nM | 10 nM | < 100 nM | 100 to 5000 nM | 290 nM | < 100 nM | 80 nM | 180 nM | 110 nM | 80 nM | 60 nM | 20 nM | 80 nM | 40 nM | 220 nM | 1000 nM | 50 nM | IC50 (LoVo cells; [12]): 100 to 5000 nM; IC50 (DLD-1 cells; [14]): 100 to 5000 nM; IC50 (Colo-205 cells; [16]): < 100 nM; IC50 (NHDF cells; [18]): < 100 nM; IC50 (DU-145 cells; [20]): < 100 nM; IC50 (U2OS cells; [22]): < 100 nM; IC50 (MDA-MB-231 cells; [24]): 100 to 5000 nM; IC50 (MDA-MB-468 cells; [26]): 100 to 5000 nM; IC50 (PC3 cells; PC3 cell line, read-out: MTT Assay IC50, PC3): < 100 nM |
| Nc1ccc(/C=C/C(=O)NCc2cc3cc(-c4ccc(C(=O)N5CCOCC5)cc4)cc(C(F)(F)F)c3o2)cn1 [Compound 510, (E)-3-(6-aminopyridin-3-yl)-N-((5-(4-(morpholine-4-carbonyl)phenyl)-7-(trifluoromethyl)benzofuran-2-yl)methyl)acrylamide] | 100 nM | 100 to 5000 nM | > 10000 nM | > 10000 nM | 100 nM | < 100 nM | < 100 nM | 90 nM | 100 to 5000 nM | 1270 nM | 230 nM | 950 nM | 160 nM | 80 nM | 50 nM | 1470 nM | 8 nM | 1410 nM | 30 nM | 20 nM | IC50 (LoVo cells; [12]): 100 to 5000 nM; IC50 (DLD-1 cells; [14]): 100 to 5000 nM; IC50 (Colo-205 cells; [16]): 100 to 5000 nM; IC50 (NHDF cells; [18]): < 100 nM; IC50 (DU-145 cells; [20]): 100 to 5000 nM; IC50 (U2OS cells; [22]): < 100 nM; IC50 (MDA-MB-231 cells; [24]): 100 to 5000 nM; IC50 (MDA-MB-468 cells; [26]): < 100 nM |
| Nc1ccc(/C=C/C(=O)NCc2cc3cc(-c4ccc(C(=O)N5CCC(F)(F)CC5)cn4)cc(C(F)(F)F)c3o2)cn1 [Compound 585, (E)-3-(6-aminopyridin-3-yl)-N-((5-(5-(4,4-difluoropiperidine-1-carbonyl)pyridin-2-yl)-7-(trifluoromethyl)benzofuran-2-yl)methyl)acrylamide] | 100 nM | < 100 nM | > 10000 nM | > 10000 nM | 20 nM | < 100 nM | – | 90 nM | – | 270 nM | 260 nM | 940 nM | 170 nM | 5820 nM | 130 nM | 4900 nM | 60 nM | 1120 nM | 200 nM | 140 nM | – |
